Consider 20 compounds from patent US20190282558A1, “Methods of Treating Zika Virus Infection” (Emergent Virology LLC, priority 2016, published 2019).

Where two headings read alike, the source gives them in different places.

Format in all cases: cell-based
Series [1] deals with Zika virus, FSS 13025 strain (ZIKV, Cambodia 2010). Briefly: Yield reduction assay followed by plaque assay in Vero cells, ZIKV Cambodia 2010. Particulars: for IC50: Zika virus, 96 h, read-out: ZIKV, Cambodian 2010 IC50; for IC50 (summary in words): summary of Table 3. As for the experimental part: (§1) The iminosugar compounds set forth in Table 4, below, were evaluated for antiviral activity against Zika virus, FSS 13025 strain (ZIKV, Cambodia 2010) and PR ABC strain (ZIKV, PR2015) in an yield reduction assay followed by a plaque assay.
In the yield reduction assay, Vero cells were seeded in 24-well plates and incubated overnight. The next day, serial dilutions of a given compound were prepared at 300 μM, 100 μM, 30 μM, 10 μM, and 3.0 μM. Growth medium was removed from the cells and the serial dilutions of the given compound were added in duplicate for one hour. Zika virus, FSS 13025 strain (ZIKV, Cambodia 2010) was added at a multiplicity of infection (MOI) of 0.01 for one hour. Growth medium was added to 1 mL and the cells were incubated for 4 days. Thereafter, cell supernatants were harvested, cleared of cell debris by centrifugation, and stored at −80° C. until further analysis for viral content in a plaque assay.
Plaque assays were performed by seeding Vero cells in 24-well plates and allowing the cells to adhere overnight. The next day each of the harvested supernatants from the yield-reduction assay were serially diluted 10-fold, growth medium was removed from the cells, and the adhered cells were infected with the dilutions of the supernatants for 1 h. Methylcellulose was added and the cells were incubated for 3 days. Plaques were visualized by staining the cell monolayer with crystal violet. Relative inhibition was calculated using IDBS XLFIT analysis program.
(§2) The duplicate titers for virus-only (vehicle control) were averaged and used as 0% inhibition. Efficacy data for the compounds were reported as the mean of the duplicates, including the standard deviation (SD) and coefficient of variation (% CV). FIGS. 2A, 2B, 3A, 3B, 4A, 4B, 5A, 5B, 6A, 6B, 7A, 7B, 8A, 8B, 9A, 9B, 10A, 10B, 11A, 11B, 12A, 12B, 13A, 13B, 14A, 14B, and 15 show the in vitro inhibitory effect of the iminosugar compounds against Zika virus, FSS 13025 strain, as set forth in Table 3 below.

A short description of series [2]: In vitro cell cytotoxicity (CellTiter-Glo) in Vero cells. The note with it: African green monkey, 3-5 days, max concentration 500 or 1000 μM, * = average of two values. A general note: ATP-based viability assays read luminescence as a measure of living cells.
Series [3] relates to Zika virus, PR ABC strain (ZIKV, PR2015). Nature of the series: Yield reduction assay followed by plaque assay in Vero cells, ZIKV PR2015. Particulars: 120 h, read-out: ZIKV, PR2015 IC50. The method, then:
as §1
In the yield reduction assay, Vero cells were seeded in 24-well plates and incubated overnight. The next day, serial dilutions of a given compound were prepared at 200 μM, 100 μM, 20 μM, 4 μM, 0.8 μM, 0.16 μM, 0.03 μM, and 0.01 μM. Growth medium was removed from the cells and the serial dilutions of the given compound were added in duplicate for one hour. Zika virus, PR ABC strain (ZIKV, PR2015) was added at a multiplicity of infection (MOI) of 0.01 for one hour. Growth medium was added to 1 mL and the cells were incubated for 5 days. Thereafter, cell supernatants were harvested, cleared of cell debris by centrifugation, and stored at −80° C. until further analysis for viral content in a plaque assay.
Plaque assays were performed by seeding Vero cells in 24-well plates and allowing the cells to adhere overnight. The next day each of the harvested supernatants from the yield-reduction assay were serially diluted 10-fold, growth medium was removed from the cells, and the adhered cells were infected with the dilutions of the supernatants for 1 h. The cells were incubated with 0.8% carboxymethyl cellulose (CMC) for 3 days. At the end of the incubation, CMC overlay was removed, and the cells were permeabilized with an 80%/20% (V/V) mixture of ethanol and methanol for 10 min at −20° C. Plaques were visualized by performing an immunostaining assay with monoclonal 4G2 (ATCC) which was detected by HRP-conjugated goat anti-mouse antibody and visualized using HRP-conjugated goat anti-mouse polyclonal antibodies. Relative inhibition was calculated using IDBS XLFIT analysis program.
as §2

[4] abbreviates: Vero cells, MOI 0.01, 4 days, plaque assay of supernatants, * = average of multiple data points.

In the case of `O=[N+]([O-])c1cc(-n2nccn2)ccc1NCCCCCCN1C[C@H](O)[C@@H](O)[C@H](O)[C@H]1CO` [Compound 3, (2R,3R,4R,5S)-2-(hydroxymethyl)-1-(6-((2-nitro-4-(2H-1,2,3-triazol-2-yl)phenyl)amino)hexyl)piperidine-3,4,5-triol], the half-maximal inhibitory concentration (IC50) in series [1] (setting [4]) came to 106 µM. This compound also showed a CC50 in series [2] of 245 µM.
`N/C(=N/O)c1ccc(NCCCCCCN2C[C@H](O)[C@@H](O)[C@H](O)[C@H]2CO)c([N+](=O)[O-])c1` [Compound 4, (E)-N′-hydroxy-3-nitro-4-((6-((2R,3R,4R,5S)-3,4,5-trihydroxy-2-(hydroxymethyl)piperidin-1-yl)hexyl)amino)benzimidamide]: in series [1] (setting [4]), the IC50 turned out to be 77.1 µM. The CC50 in series [2] is over 1000 µM.
As to `O=[N+]([O-])c1cc(-n2cnnn2)ccc1NCCCCCCN1C[C@H](O)[C@@H](O)[C@H](O)[C@H]1CO` [Compound 5, (2R,3R,4R,5S)-2-(hydroxymethyl)-1-(6-((2-nitro-4-(1H-tetrazol-1-yl)phenyl)amino)hexyl)piperidine-3,4,5-triol], in series [1] (setting [4]), the IC50 worked out at 69.3 µM. In series [2], this compound registered a CC50 of over 1000 µM.
Compound `O=[N+]([O-])c1cc(-n2ncnn2)ccc1NCCCCCCN1C[C@H](O)[C@@H](O)[C@H](O)[C@H]1CO` [Compound 6, (2R,3R,4R,5S)-2-(hydroxymethyl)-1-(6-((2-nitro-4-(2H-tetrazol-2-yl)phenyl)amino)hexyl)piperidine-3,4,5-triol] showed a 50% cytotoxic concentration (CC50) in series [2] of 953 µM.
As for `O=[N+]([O-])c1cc(-c2ncccn2)ccc1NCCCCCCN1C[C@H](O)[C@@H](O)[C@H](O)[C@H]1CO` [Compound 7, (2R,3R,4R,5S)-2-(hydroxymethyl)-1-(6-((2-nitro-4-(pyrimidin-2-yl)phenyl)amino)hexyl)piperidine-3,4,5-triol], the half-inhibitory concentration (IC50) in series [1] (setting [4]) amounted to 18.9 µM. The “IC50 (summary in words)” value in series [1] is “low micromolar activity”. Moreover, the 50% cytotoxic concentration (CC50) in series [2] is over 1000 µM.
As to `O=[N+]([O-])c1ccc(-n2cnnn2)cc1NCCCCCCN1C[C@H](O)[C@@H](O)[C@H](O)[C@H]1CO` [Compound 9, (2R,3R,4R,5S)-2-(hydroxymethyl)-1-(6-((2-nitro-5-(1H-tetrazol-1-yl)phenyl)amino)hexyl)piperidine-3,4,5-triol], the IC50 in series [1] (setting [4]) is over 100 µM. The CC50 in series [2] is over 1000 µM.
For `O=[N+]([O-])c1ccc(N2CCNCC2)cc1NCCCCCCN1C[C@H](O)[C@@H](O)[C@H](O)[C@H]1CO` [Compound 10, (2R,3R,4R,5S)-2-(hydroxymethyl)-1-(6-((2-nitro-5-(piperazin-1-yl)phenyl)amino)hexyl)piperidine-3,4,5-triol], the IC50 in series [1] (setting [4]) was over 100 µM. The half-maximal cytotoxic concentration (CC50) in series [2] is over 1000 µM.
Consider `O=[N+]([O-])c1cc(NCCCCCCN2C[C@H](O)[C@@H](O)[C@H](O)[C@H]2CO)ccc1-n1cccn1` [Compound 13, (2R,3R,4R,5S)-2-(hydroxymethyl)-1-(6-((3-nitro-4-(1H-pyrazol-1-yl)phenyl)amino)hexyl)piperidine-3,4,5-triol], for which, in series [1] (setting [4]), the IC50 is over 100 µM. In addition, the CC50 in series [2] was over 1000 µM.
For the compound `O=[N+]([O-])c1cc(NCCCCCCN2C[C@H](O)[C@@H](O)[C@H](O)[C@H]2CO)ccc1-n1cnnn1` [Compound 14, (2R,3R,4R,5S)-2-(hydroxymethyl)-1-(6-((3-nitro-4-(1H-tetrazol-1-yl)phenyl)amino)hexyl)piperidine-3,4,5-triol], the IC50 in series [1] (setting [4]) was 88.5 µM. Further, the CC50 in series [2] is over 1000 µM.
As to `CN(C)Cc1ccc([N+](=O)[O-])c(NCCCCCCN2C[C@H](O)[C@@H](O)[C@H](O)[C@H]2CO)c1` [Compound 16, (2R,3R,4R,5S)-1-(6-((5-((dimethylamino)methyl)-2-nitrophenyl)amino)hexyl)-2-(hydroxymethyl)piperidine-3,4,5-triol], in series [1] (setting [4]), the IC50 was over 100 µM. In series [2], the CC50 is over 1000 µM.
On to `[N-]=[N+]=Nc1ccc(NCCCCN2C[C@H](O)[C@@H](O)[C@H](O)[C@H]2CO)c([N+](=O)[O-])c1` [Compound 17, (2R,3R,4R,5S)-1-(4-((4-azido-2-nitrophenyl)amino)butyl)-2-(hydroxymethyl)piperidine-3,4,5-triol], for which the IC50 in series [1] (setting [4]) was determined as 30.4 µM. Further, in series [1], the “IC50 (summary in words)” value was “low micromolar activity”. The same compound had a CC50 in series [2] of 350 µM.
As for `OC[C@@H]1[C@@H](O)[C@H](O)[C@@H](O)CN1CCCCCCNc1c(F)cc(F)cc1F` [Compound 18, (2R,3R,4R,5S)-2-(hydroxymethyl)-1-(6-((2,4,6-trifluorophenyl)amino)hexyl)piperidine-3,4,5-triol trifluoroacetic acid], the IC50 in series [1] (Vero) is over 100 µM. The same compound gave a CC50 in series [2] of 413 µM.
On to `OC[C@@H]1[C@@H](O)[C@H](O)[C@@H](O)CN1CCCCCCNc1ccc(-n2ncnn2)cc1` [Compound 19, (2R,3R,4R,5S)-1-(6-((4-(2H-tetrazol-2-yl)phenyl)amino)hexyl)-2-(hydroxymethyl)piperidine-3,4,5-triol], for which the IC50 in series [1] (setting [4]) worked out at 140 µM. The CC50 in series [2] is 953 µM.
Turning to `O=[N+]([O-])c1cc(CN2CCCO2)ccc1NCCCCCCN1C[C@H](O)[C@@H](O)[C@H](O)[C@H]1CO` [Compound 21, (2R,3R,4R,5S)-2-(hydroxymethyl)-1-(6-((4-(isoxazolidin-2-ylmethyl)-2-nitrophenyl)amino)hexyl)piperidine-3,4,5-triol], the IC50 in series [1] (setting [4]) was over 100 µM. For the same compound, half-maximal cytotoxicity in series [2] (CC50) was put at 2130 µM.
Consider `O=[N+]([O-])c1cc(-c2ccccn2)ccc1NCCCCCCN1C[C@H](O)[C@@H](O)[C@H](O)[C@H]1CO` [Compound 22, (2R,3R,4R,5S)-2-(hydroxymethyl)-1-(6-((2-nitro-4-(pyridin-2-yl)phenyl)amino)hexyl)piperidine-3,4,5-triol], for which the IC50 in series [1] (setting [4]) was 47 µM. In addition, in series [1], the “IC50 (summary in words)” value is “low micromolar activity”. In series [2], this compound came in with a CC50 of 99.8 µM.
Regarding `O=[N+]([O-])c1cc(-c2cccnn2)ccc1NCCCCCCN1C[C@H](O)[C@@H](O)[C@H](O)[C@H]1CO` [Compound 23, (2R,3R,4R,5S)-2-(hydroxymethyl)-1-(6-((2-nitro-4-(pyridazin-3-yl)phenyl)amino)hexyl)piperidine-3,4,5-triol], the 50% inhibitory concentration (IC50) in series [1] (setting [4]) is over 100 µM. This compound had a CC50 in series [2] of 5190 µM.
On the same counts, the results for `O=[N+]([O-])c1cc(-c2ccncn2)ccc1NCCCCCCN1C[C@H](O)[C@@H](O)[C@H](O)[C@H]1CO` [Compound 24, (2R,3R,4R,5S)-2-(hydroxymethyl)-1-(6-((2-nitro-4-(pyrimidin-4-yl)phenyl)amino)hexyl)piperidine-3,4,5-triol] are over 100 µM and 816 µM.
Turning to `O=[N+]([O-])c1cc(-c2cccnc2)ccc1NCCCCCCN1C[C@H](O)[C@@H](O)[C@H](O)[C@H]1CO` [Compound 25, (2R,3R,4R,5S)-2-(hydroxymethyl)-1-(6-((2-nitro-4-(pyridin-3-yl)phenyl)amino)hexyl)piperidine-3,4,5-triol], the concentration for half-maximal inhibition (IC50) in series [1] (setting [4]) worked out at 17 µM. For the same compound, in series [1], the “IC50 (summary in words)” value is “low micromolar activity”. For the same compound, the midpoint of cytotoxicity in series [2], the CC50, lay at 101 µM.
`CCCCN1C[C@H](O)[C@@H](O)[C@H](O)[C@H]1CO` [UV-1, (2R,3R,4R,5S)-1-butyl-2-(hydroxymethyl)piperidine-3,4,5-triol]: the 50% inhibitory concentration (IC50) in series [3] (Vero cells, MOI 0.01, 5 days, plaque assay with immunostaining, * = average of multiple data points) worked out at 3 µM.
Regarding `CCCCCCCCCN1C[C@H](O)[C@@H](O)[C@H](O)[C@H]1CO` [UV-2, (2R,3R,4R,5S)-2-(hydroxymethyl)-1-nonylpiperidine-3,4,5-triol], in series [3] (Vero), the IC50 turned out to be 95 µM.

As usually defined, the IC50 is the concentration at which inhibition is half-maximal. One may read the CC50 as the concentration giving 50% cytotoxicity. Low readings indicate harm at low concentration, high ones better tolerance by the cells.
